Read-outs that look alike come from different tables or passages of the source. A value given as a limit tells only on which side of the number the result lay.

Data set [1] relates to Notch target genes. Briefly: Quantitative RT-PCR of Notch target genes in OE33 cells. The class given is cell-based, human. The conditions noted are these: OE33, 48 h, compared to control (DMSO), normalized to TBP. How it is done: Quantitative RT-PCR Other Assays
RNA was isolated from OE33 cells treated with either DMSO (vehicle) or NADi-351 for 48 h, using an RNA purification kit (Qiagen), following the manufacturer's instructions. cDNA was synthesized using the High Capacity cDNA Reverse Transcription kit (Applied Biosystems), according to the manufacturer's instructions. qPCR reactions were carried out in the Bio-Rad CFX96 thermal cycler using Sybr Green Master Mix (Bio-Rad). Gene expression was normalized to housekeeping gene TBP. […]

For data set [2], the system named is OE33 cell line (esophageal adenocarcinoma). Description: Colony assay, OE33. The conditions noted are these: OE33, repeat dose every 48 hours for 10 days. The class given is cell-based, human. Here is the method:
Cells were plated into a 6 well plate at a density of 2000 cells/cm^2. Inhibitor treatment commenced 24 hours post seeding, and the media containing inhibitor was changed every 48 hours thereafter. […]

Data set [3] has as its system esophageal adenocarcinoma patient-derived xenograft (EAC47 PDX tumor). Briefly: Esophageal adenocarcinoma patient-derived xenograft (PDX) model. The class given is in vivo. The conditions noted are these: NSG mice, 25 days of treatment. How it is done: Mouse Xenograft Studies Six-week-old NOD-SCID gamma (“NSG”) mice were purchased from Jackson Laboratories and CD-1 Nude mice were purchased from Charles River Laboratories. For the cell line based xenografts assay, 5×10^6 OE19 cells in 200 μl serum-free culture medium were injected subcutaneously per mouse. The mice in the treatment group were injected with 15 mg/kg NADi-351 daily, and the mice in the control group were injected with the same volume of vehicle (DMSO). Subcutaneous tumor growth was measured once every 4 days using calipers along with body weight. The experiment was discontinued on day 28. PDX cancer models were established, as described in Zhang et al, Establishment of Patient-Derived Xenograft (PDX) Models of Human Breast Cancer, Current Protocols in Mouse Biology, 3:21-29 (2013), in NSG mice. Briefly, 10 mm^3 pieces of primary EAC47 PDX tumor were transplanted subcutaneously into the flanks of NSG mice using a 13G telescopic needle. When the tumors reached 200 mm^3, the mice were split into two uniform groups for treatment. NADi-351 (20 mg/kg) and vehicle were administered daily by intraperitoneal (“IP”) injection for 24 days. Tumor growth was monitored every 4 days and tumor volume was measured by the formula: Volume=(S×S×L)/2, where S and L are the short and long dimensions. […]
A general note: A xenograft is tissue or cells of one species grown in another, often human tumour cells in immunodeficient mice.

Data set [4] has as its target T1, Notch1 transcriptional complex (Homo sapiens, UniProt P46531).
T1 construct: endogenous in cells; host or cells: OE33 cells, nuclear lysate
Description: 2xCSL DNA affinity precipitation, OE33 nuclear lysate: Notch1. The conditions noted are these: OE33, 48 hours of treatment. The class given is cell-based. How it is done:
DNA Affinity Purification
Streptavidin agarose beads (Pierce) were incubated with previously annealed 47-mer biotinylated dsDNA containing two high-affinity CSL binding sites facing forward (2×CSL binding DNA) or 2 mutated CSL binding sites (mut. DNA). Sequences were previously reported by Weaver et al. (2014) Cancer Res. The nuclear lysates of OE33 cell lines were incubated with the DNA streptavidin beads, and bound proteins were analyzed by Western blot. Protein analysis was carried out using conventional SDS-PAGE and transfer techniques. Blots were probed with the indicated antibody (“Ab”), using standard conditions, and detected using enhanced chemiluminescence (“ECL”). The following Ab were used: anti-Notch1^val1744 (4147S, Cell Signaling Technology), anti-Notch2^val1697 (SAB4502022, Sigma-Aldrich), anti-Notch3 (5276S, Cell Signaling), anti-CSL (5313S, Cell signaling), anti-SP1 (5931S, Cell Signaling), and anti-GAPDH (ab9483 Abcam).

The test system of data set [5] is intestinal crypts. Description: Histological analysis of mouse intestine tissue (H&E and PAS staining). The class given is in vivo, BALB/c mice. The conditions noted are these: 5 days; DBZ at efficacious dose, NADi-351 at 4x the efficacious dose. How it is done:
The compounds and salts disclosed herein no not induce goblet cell metaplasia in intestinal crypts. Intestinal crypts were exposed to vehicle (DMSO), an efficacious dose of dibenzazepine (“DBZ”), a γ-secretase inhibitor, and 4× the efficacious dose of NADi-351 and stained with a hemotoxylin and eosin (“H&E”) stain and a periodic acid-Schiff (“PAS”) stain.
Six-week old BALB/c mice (Jackson Laboratories) were injected intraperitoneally with NADi-351, daily for 5 days. Small intestine samples were harvested on day 5. Formalin-fixed and paraffin-embedded tissues were sectioned at 3 μm thickness. Histochemical identification of intestinal cell types was performed with Periodic Acid-Schiff (PAS) staining kit (ab150680, Abcam), according to manufacturer's instructions.

Data set [6] is described as follows: Pharmacokinetic study in mouse plasma. The conditions noted are these: for Cmax: read-out: *C0/Cmax; for bioavailability: mouse. The class given is in vivo. How it is done:
Pharmacokinetic studies were performed as previously described (Astudillo et al. (2016) Cancer Res). The following treatments were administered: NADi-260 via intraperitoneal (i.p.) route at 100 mg/kg, NADI-260 via intravenous route (i.v.) at 2 mg/kg, NADi-351 via i.p. at 10 mg/kg, NADi-351 via […] at 10 mg/kg and NADi-351 via oral route (PO) at 50 mg/kg. Blood samples were collected from each treatment group and their respective control grounds, plasma was separated from blood immediately by centrifugation at 4000 rpm for 10 min at 4° C. and stored below −70° C. until bioanalysis. All samples were processed for analysis by protein precipitation using acetonitrile and analyzed by fit for purpose LC-MS/MS method. Pharmacokinetic parameters were calculated using the non-compartmental analysis module of Phoenix WinNonlin (Version 6.3). Histological Analysis of Mouse Intestine Tissue

The nature of data set [7]: GSH ethyl ester conjugation / parent remaining in human liver microsomes. The conditions noted are these: for Percentage (%) Parent Remaining in HLM: reacted with GSH. The class given is in vitro ADME. On the technique in general: Liver microsomes are vesicles of endoplasmic reticulum, rich in cytochrome P450 enzymes.
[8] abbreviates: ip, i.p. 10 mg/kg, mouse plasma.
Where [9] appears, read: iv, i.v. 10 mg/kg, mouse plasma.
Where [10] appears, read: po, p.o. 50 mg/kg, mouse plasma.

T1 sequence (P46531 1754-2555 limits assumed): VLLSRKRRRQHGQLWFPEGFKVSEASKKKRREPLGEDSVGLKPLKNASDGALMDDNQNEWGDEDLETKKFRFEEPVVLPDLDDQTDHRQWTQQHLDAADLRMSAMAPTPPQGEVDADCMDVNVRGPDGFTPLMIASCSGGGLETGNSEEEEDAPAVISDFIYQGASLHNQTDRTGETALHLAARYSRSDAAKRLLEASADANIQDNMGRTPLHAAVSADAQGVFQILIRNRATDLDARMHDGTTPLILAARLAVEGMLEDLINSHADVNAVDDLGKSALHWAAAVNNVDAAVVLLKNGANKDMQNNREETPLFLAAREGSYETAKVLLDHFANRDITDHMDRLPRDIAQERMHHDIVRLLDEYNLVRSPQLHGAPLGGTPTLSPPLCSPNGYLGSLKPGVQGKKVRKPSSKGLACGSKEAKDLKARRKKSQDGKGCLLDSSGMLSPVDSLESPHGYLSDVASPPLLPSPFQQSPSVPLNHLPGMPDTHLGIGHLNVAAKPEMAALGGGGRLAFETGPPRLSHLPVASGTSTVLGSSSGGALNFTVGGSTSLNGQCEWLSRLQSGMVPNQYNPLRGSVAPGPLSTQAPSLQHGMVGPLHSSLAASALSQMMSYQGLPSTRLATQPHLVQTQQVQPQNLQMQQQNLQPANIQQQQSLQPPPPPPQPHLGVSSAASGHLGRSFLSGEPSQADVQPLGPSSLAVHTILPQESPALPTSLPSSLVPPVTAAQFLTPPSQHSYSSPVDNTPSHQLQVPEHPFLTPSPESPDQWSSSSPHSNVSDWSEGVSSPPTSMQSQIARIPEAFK
T1 sequence (Q06330 whole entry partner): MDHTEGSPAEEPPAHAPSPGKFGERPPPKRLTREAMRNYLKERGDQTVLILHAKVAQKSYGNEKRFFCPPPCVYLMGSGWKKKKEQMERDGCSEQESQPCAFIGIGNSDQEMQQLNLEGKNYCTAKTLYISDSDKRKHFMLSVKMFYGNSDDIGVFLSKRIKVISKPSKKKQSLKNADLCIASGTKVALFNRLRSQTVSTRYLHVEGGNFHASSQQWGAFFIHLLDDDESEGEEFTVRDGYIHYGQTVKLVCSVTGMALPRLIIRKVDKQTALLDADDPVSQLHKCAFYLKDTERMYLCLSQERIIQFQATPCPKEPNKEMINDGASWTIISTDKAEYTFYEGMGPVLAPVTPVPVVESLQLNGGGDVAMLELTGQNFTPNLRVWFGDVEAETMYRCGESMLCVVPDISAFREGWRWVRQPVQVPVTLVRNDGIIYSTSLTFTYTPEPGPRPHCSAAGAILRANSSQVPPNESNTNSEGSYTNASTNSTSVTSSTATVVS

For the compound `COc1cc(/C(C)=C2\SC(=S)N(CC(=O)N(C)C)C2=O)cc(F)c1OCc1nnc[nH]1` [NADi-351, (Z)-2-(5-(1-(4-((1H-1,2,4-triazol-3-yl)methoxy)-3-fluoro-5-methoxyphenyl)ethylidene)-4-oxo-2-thioxothiazolidin-3-yl)-N,N-dimethylacetamide], the “expression of Notch target genes” value in data set [1] is recorded as “decreased the expression of Notch target genes”. Also, in data set [2], the colony formation entry was “decreased colony formation”. Besides, the “body weight of the subjects” value in data set [3] is recorded as “remained constant”. In data set [3] (compared to control), the “volume of the tumor” value is “significantly inhibited compared to control”. For the same compound, in data set [4], the “formation of the Notch1 intracellular domain (N1icd) complex” value is on record as “inhibited the formation”. For the same compound, the “goblet cell metaplasia / crypt integrity (H&E and PAS staining)” value in data set [5] was “no goblet cell metaplasia and intact crypts”. In addition, in data set [6] (setting [8]), the AUC(0-inf) is 4550 ng·h/mL, the AUC(0-t) turned out to be 4550 ng·h/mL, the Tmax came to 15 min and the Cmax worked out at 8200 ng/mL. In addition, in data set [6] (setting [9]), the AUC(0-inf) came out at 4570 ng·h/mL, the clearance was found to be 36.5 mL/min/kg and the half-life was 87.6 min. Also, the Vd in data set [6] (iv, i.v. 10 mg/kg, mouse plasma, read-out: Vss) came out at 0.8 L/kg. For the same compound, the “metabolic stability compared with NADi-260” value in data set [6] (mouse plasma, FIG. 3) is “significantly improved metabolic stability”. For the same compound, the bioavailability result in data set [6] (FIG. 3) was “excellent bioavailability”. For the same compound, the bioavailability in data set [6] (plasma, po, p.o. 50 mg/kg, read-out: % F) was greater than 100%. Also, in data set [6] (setting [10]), the AUC(0-inf) was 38000 ng·h/mL, the AUC(0-t) stood at 37900 ng·h/mL, the Tmax was determined as 30 min and the Cmax worked out at 17500 ng/mL. Further, the “Percentage (%) Parent Remaining in HLM” value in data set [7] (incubation time 0 min) stood at 100%. In addition, the “Percentage (%) Parent Remaining in HLM” value in data set [7] (incubation time 60 min) is 86%. Further, the “GSH ethyl ester conjugation in HLM” value in data set [7] (within 60 minutes of incubation) is recorded as “increased stability toward GSH ethyl ester conjugation”.

As usually defined, the AUC(0-inf) is total exposure, with the tail of the curve extrapolated. High values mean high exposure, low ones low exposure. As a reminder, the AUC(0-t) is exposure summed from dosing to a finite time, without extrapolation to infinity. Read a high AUC(0-t) as high exposure. As a reminder, the Tmax is the time from dosing to the highest level. A word on the clearance: it is the rate of elimination divided by the concentration. Broadly, the half-life is the time needed for the level to fall by half in the phase considered. Low values mean rapid decline, high ones slow decline.

The record behind these values is patent publication US12275725B2, “Inhibitors of the notch transcriptional activation complex and methods for use of the same” (University of Miami, priority 2019, dated 2025).
